The text below walks through data of patent US20250298028A1, “METHOD FOR SCREENING DRUGS FOR TREATING MULTIPLE-VARIANT CORONAVIRUS DISEASE” (KOREA UNIVERSITY RESEARCH AND BUSINESS FOUNDATION, priority 2022, published 2025).

For test [1], the target named is T1, main protease (M^pro) of SARS-COV-2 (Severe acute respiratory syndrome coronavirus 2, UniProt P0DTD1). As to the kind of experiment: TEM observation of the reaction of MCAP-AuNP with M^pro after M^pro inhibitor treatment. The class given is biochemical. As to conditions: TEM images, FIG. 10B-10D.
Test [2] addresses T1, main protease (M^pro) of SARS-COV-2. The test is described as follows: biochemical.

The term IC50 denotes the concentration that inhibits the measured activity by half. Read a low IC50 as greater potency. `COc1ccc([C@@H]2CC(=O)c3c(O)cc(O)cc3O2)cc1O` [hesperetin]: the “activity of M^pro after M^pro inhibitor treatment (effect on MCAP-AuNP, TEM image)” value in test [1] is recorded as “inhibited”. It took 43.1 µM to reach half-maximal inhibition in test [2] (IC50).

Turning to `CC(=O)N[C@@H](CC(C)C)C(=O)N[C@@H](CC(C)C)C(=O)N[C@H](C=O)CCCNC(=N)N` [leupeptin], the “activity of M^pro after M^pro inhibitor treatment (effect on MCAP-AuNP, TEM image)” value in test [1] is listed as “inhibited”. Moreover, the IC50 in test [2] was 28.6 µM.

`Cc1cccc(C)c1OCC(=O)N[C@@H](Cc1ccccc1)[C@@H](O)C[C@H](Cc1ccccc1)NC(=O)[C@H](C(C)C)N1CCCNC1=O` [lopinavir]: the “activity of M^pro after M^pro inhibitor treatment (effect on MCAP-AuNP, TEM image)” value in test [1] is “inhibited”. In test [2], this compound came in with a 50% inhibitory concentration (IC50) of 10.7 µM.
